Test results reported in PubChem BioAssay (NCI).
“And” between values parts separate entries of the source, which are not always exact repeats. Equal values may be shown once.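 Protocol summary: plate cells (96-well), add compound at 5 concentrations, incubate 48 h, interpolate endpoints linearly. Abbreviation: GI50, concentration required for 50% inhibition of growth. TGI: total growth inhibition.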

Assays:
Assay in all cases: NCI tumour cell line growth inhibition, 48 h
SW-620 colon = test system: SW-620 colon
HL-60(TB) leukemia = test system: HL-60(TB) leukemia
NCI-H460 lung = test system: NCI-H460 lung
TK-10 renal = test system: TK-10 renal
OVCAR-5 ovarian = test system: OVCAR-5 ovarian
U251 CNS = test system: U251 CNS
SF-295 CNS = test system: SF-295 CNS
HCT-116 colon = test system: HCT-116 colon
SF-539 CNS = test system: SF-539 CNS
HCC-2998 colon = test system: HCC-2998 colon

Compound `Cc1ccc(SSCCCS(=O)O)cc1` has a TGI (SW-620 colon) of over 100 µM, a TGI (HL-60(TB) leukemia) of 6.49 µM and a TGI (NCI-H460 lung) of over 100 µM. For the same compound, the TGI (TK-10 renal) was over 100 µM, the TGI (OVCAR-5 ovarian) was over 100 µM and the TGI (U251 CNS) was 41.2 µM. It also gave a TGI (SF-295 CNS) of over 100 µM, a TGI (HCT-116 colon) of over 100 µM and a TGI (SF-539 CNS) of 40.6 µM. The TGI (HCC-2998 colon) was over 100 µM.
`COC(=O)/C(C#N)=C\N1CCN(C(=O)c2ccco2)C1=S` was tested, and the GI50 (SW-620 colon) was 5.2 µM, the TGI (SW-620 colon) was 19.7 µM and the GI50 (HL-60(TB) leukemia) was 6.94 µM. The TGI (HL-60(TB) leukemia) was over 100 µM, the GI50 (NCI-H460 lung) was 2.47 µM and the TGI (NCI-H460 lung) was 4.95 µM. The GI50 (TK-10 renal) was 3.63 µM, the TGI (TK-10 renal) was 13.2 µM and the GI50 (U251 CNS) was 6.78 µM. For the same compound, the TGI (U251 CNS) was 37 µM, the GI50 (SF-295 CNS) was 26 µM and the TGI (SF-295 CNS) was 65.1 µM. It also gave a GI50 (HCT-116 colon) of 3.95 µM and a TGI (HCT-116 colon) of 16 µM.
`CCN1CCN(CCOc2ccc(CNc3ccc4nc(CCC5CCCCC5)[nH]c4c3)cc2)CC1` showed a GI50 (SW-620 colon) of 1.91 µM, a TGI (SW-620 colon) of 4.14 µM and a GI50 (HL-60(TB) leukemia) of 1.87 µM. It also gave a TGI (HL-60(TB) leukemia) of 3.92 µM, a GI50 (NCI-H460 lung) of 2.47 µM and a TGI (NCI-H460 lung) of 7.27 µM. It also gave a GI50 (TK-10 renal) of 2.93 µM, a TGI (TK-10 renal) of 8.06 µM and a GI50 (OVCAR-5 ovarian) of 2.33 µM. The TGI (OVCAR-5 ovarian) was 7.18 µM, the GI50 (U251 CNS) was 1.49 µM and the TGI (U251 CNS) was 3.16 µM. The GI50 (SF-295 CNS) was 1.99 µM, the TGI (SF-295 CNS) was 3.95 µM and the GI50 (HCT-116 colon) was 1.32 µM. The TGI (HCT-116 colon) was 2.87 µM, the GI50 (SF-539 CNS) was 1.57 µM and the TGI (SF-539 CNS) was 3 µM. The GI50 (HCC-2998 colon) was 2.22 µM and the TGI (HCC-2998 colon) was 5.07 µM.
`CC1=C(C(=O)Nc2cccc(C(F)(F)F)c2)C(c2ccc(O)cc2)C(C(=O)Nc2cccc(C(F)(F)F)c2)=C(C)N1` gave a TGI (SW-620 colon) of 44 µM, a TGI (HL-60(TB) leukemia) of 38.7 µM and a TGI (NCI-H460 lung) of 43.1 µM. The TGI (TK-10 renal) was 66.6 µM, the TGI (OVCAR-5 ovarian) was 72.6 µM and the TGI (U251 CNS) was 43.6 µM. The TGI (SF-295 CNS) was 39.9 µM, the TGI (HCT-116 colon) was 28.1 µM and the TGI (SF-539 CNS) was 60.5 µM. The TGI (HCC-2998 colon) was 36.3 µM.
`Cc1ccc2nc3c(Cl)cc(=O)cc-3sc2c1` was tested, and the TGI (SW-620 colon) was 43.5 µM, the TGI (HL-60(TB) leukemia) was 20.5 µM and the TGI (NCI-H460 lung) was 83.5 µM. It also gave a TGI (TK-10 renal) of 53.8 µM, a TGI (U251 CNS) of 45.5 µM and a TGI (SF-295 CNS) of 63.2 µM. For the same compound, the TGI (HCT-116 colon) was 32.2 µM and the TGI (SF-539 CNS) was 11.5 µM.
With `CCCCCCCCCCCCCCCCOC(=O)C(C(=O)OCCCCCCCCCCCCCCCC)[N+](C)(C)CCOC(C)=O` the TGI (SW-620 colon) was 52.4 µM, the TGI (HL-60(TB) leukemia) was 6.12 µM and the TGI (NCI-H460 lung) was 80.6 µM. The TGI (TK-10 renal) was 26.5 µM, the TGI (OVCAR-5 ovarian) was 35.1 µM and the TGI (U251 CNS) was 27 µM. It also gave a TGI (SF-295 CNS) of 35.4 µM, a TGI (HCT-116 colon) of 33.1 µM and a TGI (HCC-2998 colon) of 30.7 µM.
In the case of `CCSC1(SCC)CCN(C=NC(C)(C)C)C1`, the TGI (SW-620 colon) was 53.2 µM, the TGI (HL-60(TB) leukemia) was over 100 µM and the TGI (NCI-H460 lung) was over 100 µM. The TGI (TK-10 renal) was over 100 µM, the TGI (OVCAR-5 ovarian) was over 100 µM and the TGI (U251 CNS) was over 100 µM. It also gave a TGI (SF-295 CNS) of over 100 µM, a TGI (HCT-116 colon) of over 100 µM and a TGI (SF-539 CNS) of over 100 µM. For the same compound, the TGI (HCC-2998 colon) was over 100 µM.
In the case of `CC1=C(N2CC2)C(=O)C(CO)=C(N2CC2)C1=O`, the GI50 (SW-620 colon) was 0.00368 µM, the GI50 (HL-60(TB) leukemia) was 0.000498 µM and the TGI (HL-60(TB) leukemia) was 0.0104 µM. It also gave a GI50 (NCI-H460 lung) of 0.00476 µM, a TGI (NCI-H460 lung) of 1.85 µM and a GI50 (TK-10 renal) of 0.0405 µM. For the same compound, the TGI (TK-10 renal) was 0.721 µM and 0.309 µM, the GI50 (OVCAR-5 ovarian) was 0.194 µM and the TGI (OVCAR-5 ovarian) was 0.74 µM. It also gave a TGI (U251 CNS) of 0.285 µM, a GI50 (SF-295 CNS) of 0.0329 µM and a TGI (SF-295 CNS) of 1.06 µM. The GI50 (HCT-116 colon) was 0.00728 µM, the TGI (HCT-116 colon) was 0.0392 µM and 0.336 µM and the GI50 (SF-539 CNS) was 0.00301 µM. The TGI (SF-539 CNS) was 0.019 µM and 0.0593 µM, the GI50 (HCC-2998 colon) was 0.111 µM and the TGI (HCC-2998 colon) was 0.511 µM and 0.29 µM.
